Test results: BindingDB's records for doi:10.1016/j.bmcl.2004.10.091 (Martin-Luther-University Halle-Wittenberg, 2005)

These compounds were tested against Cyclin-dependent kinase 1/G2/mitotic-specific cyclin-B (Marthasterias glacialis, UniProt P15206+Q9DGD3) (assay: Kinase Inhibition Assay). Details: pH 7.2; 30 °C.
Sequence of Cyclin-dependent kinase 1/G2/mitotic-specific cyclin-B (Q9DGD3 whole entry): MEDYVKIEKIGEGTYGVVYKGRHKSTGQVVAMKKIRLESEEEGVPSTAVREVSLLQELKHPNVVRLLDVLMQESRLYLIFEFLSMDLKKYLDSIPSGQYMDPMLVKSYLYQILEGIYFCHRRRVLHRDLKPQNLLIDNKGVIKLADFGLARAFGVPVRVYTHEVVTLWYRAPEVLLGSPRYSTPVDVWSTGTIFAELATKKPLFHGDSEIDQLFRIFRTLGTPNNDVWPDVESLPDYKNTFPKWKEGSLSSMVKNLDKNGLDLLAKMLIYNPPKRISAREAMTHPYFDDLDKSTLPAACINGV
Sequence of Cyclin-dependent kinase 1/G2/mitotic-specific cyclin-B (P15206 whole entry): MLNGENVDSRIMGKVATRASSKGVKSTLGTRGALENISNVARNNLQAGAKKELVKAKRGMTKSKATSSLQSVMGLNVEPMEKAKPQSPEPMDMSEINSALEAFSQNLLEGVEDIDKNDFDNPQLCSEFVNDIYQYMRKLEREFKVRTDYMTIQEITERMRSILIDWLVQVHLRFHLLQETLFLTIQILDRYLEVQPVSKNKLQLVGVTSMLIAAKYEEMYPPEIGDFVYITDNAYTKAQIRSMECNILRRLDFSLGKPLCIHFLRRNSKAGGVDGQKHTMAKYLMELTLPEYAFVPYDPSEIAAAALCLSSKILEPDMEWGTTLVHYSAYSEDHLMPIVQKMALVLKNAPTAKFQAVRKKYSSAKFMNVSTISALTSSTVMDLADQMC
Procedure: (§1) Kinase activities were assayed in buffers containing substrate, enzyme, and inhibitor at 30 °C in the presence of 15 uM ATP/ [gamma-32P] ATP. 32P incorporation was measured with a scintillation counter. The IC50 is the inhibitor concentration, which inhibits 50% of kinase activity that catalyzes the transfer of the terminal phosphate from 32P labeled ATP to the substrate.
For `CCOc1cnc2oc3ccc(O)cc3c2c1-c1ccccc1` [4-ethoxy-3-phenyl-8-oxa-6-azatricyclo[7.4.0.0^{2,7}]trideca-1(13),2(7),3,5,9,11-hexaen-12-ol], the IC50 was > 100 µM. For `Oc1ccc2oc3ncc(Cl)c(-c4ccccc4)c3c2c1` [4-chloro-3-phenyl-8-oxa-6-azatricyclo[7.4.0.0^{2,7}]trideca-1(13),2(7),3,5,9,11-hexaen-12-ol], the IC50 was > 100 µM. For `Cc1cnc2oc3ccc(O)cc3c2c1-c1ccccc1` [4-methyl-3-phenyl-8-oxa-6-azatricyclo[7.4.0.0^{2,7}]trideca-1(13),2(7),3,5,9,11-hexaen-12-ol], the IC50 was > 100 µM.

What follows are compounds tested against Glycogen synthase kinase-3 beta (Rattus norvegicus, UniProt P18266) (assay: Kinase Inhibition Assay). Details: 30 °C.
Sequence of Glycogen synthase kinase-3 beta (P18266 whole entry): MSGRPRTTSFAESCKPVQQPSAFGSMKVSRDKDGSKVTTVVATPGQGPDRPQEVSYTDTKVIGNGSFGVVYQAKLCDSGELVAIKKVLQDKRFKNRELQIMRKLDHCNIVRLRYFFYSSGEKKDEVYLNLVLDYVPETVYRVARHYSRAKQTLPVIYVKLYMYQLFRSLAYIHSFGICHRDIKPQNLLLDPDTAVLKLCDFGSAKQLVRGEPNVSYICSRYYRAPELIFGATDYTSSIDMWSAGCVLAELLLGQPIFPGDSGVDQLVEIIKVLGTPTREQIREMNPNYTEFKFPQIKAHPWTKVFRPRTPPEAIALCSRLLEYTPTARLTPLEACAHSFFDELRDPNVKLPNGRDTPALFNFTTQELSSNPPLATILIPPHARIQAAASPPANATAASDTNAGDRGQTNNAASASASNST
Procedure: as §1
`Brc1cccc(-c2cc(NCc3ccncc3)n3nccc3n2)c1` [5-(3-bromophenyl)-N-(pyridin-4-ylmethyl)pyrazolo[1,5-a]pyrimidin-7-amine] showed an IC50 of 0.96 µM. In the case of `CN(C)S(=O)(=O)c1ccc(Nc2cc(N[C@H]3CC[C@H](N)CC3)nc3c(Cl)cnn23)cc1` [4-({5-[(4-aminocyclohexyl)amino]-3-chloropyrazolo[1,5-a]pyrimidin-7-yl}amino)-N,N-dimethylbenzene-1-sulfonamide], the IC50 is reported as 5.1 µM. `CN(C)S(=O)(=O)c1ccc(Nc2cc(N[C@H]3CC[C@H](N)CC3)nc3c(Br)cnn23)cc1` [4-({5-[(4-aminocyclohexyl)amino]-3-bromopyrazolo[1,5-a]pyrimidin-7-yl}amino)-N,N-dimethylbenzene-1-sulfonamide] was tested, and the IC50 was 3.4 µM. Compound `CS(=O)(=O)c1ccc(Nc2cc(Cl)nc3ccnn23)cc1` [5-chloro-N-(4-methanesulfonylphenyl)pyrazolo[1,5-a]pyrimidin-7-amine] has an IC50 of 3.1 µM. `CN(C)S(=O)(=O)c1ccc(Nc2cc(N[C@H]3CC[C@H](N)CC3)nc3c(C#N)cnn23)cc1` [4-({5-[(4-aminocyclohexyl)amino]-3-cyanopyrazolo[1,5-a]pyrimidin-7-yl}amino)-N,N-dimethylbenzene-1-sulfonamide] showed an IC50 of 0.46 µM. Compound `CN(C)S(=O)(=O)c1ccc(Nc2cc(N[C@H]3CC[C@H](N)CC3)nc3c(Br)cnn23)cc1Cl` [4-({5-[(4-aminocyclohexyl)amino]-3-bromopyrazolo[1,5-a]pyrimidin-7-yl}amino)-2-chloro-N,N-dimethylbenzene-1-sulfonamide] has an IC50 of 8.7 µM. Compound `CN(C)S(=O)(=O)c1ccc(Nc2cc(N[C@H]3CC[C@H](N)CC3)nc3c(C4CCCC4)cnn23)cc1` [4-({5-[(4-aminocyclohexyl)amino]-3-cyclopentylpyrazolo[1,5-a]pyrimidin-7-yl}amino)-N,N-dimethylbenzene-1-sulfonamide] has an IC50 of 22 µM. `CC(C)COc1cc(Nc2ccc(S(=O)(=O)N(C)C)cc2)n2ncc(C(C)C)c2n1` [N,N-dimethyl-4-{[5-(2-methylpropoxy)-3-(propan-2-yl)pyrazolo[1,5-a]pyrimidin-7-yl]amino}benzene-1-sulfonamide] was tested, and the IC50 was 50 µM. `CC(C)COc1cc(Nc2ccc(S(C)(=O)=O)cc2)n2ncc(C(C)C)c2n1` [N-(4-methanesulfonylphenyl)-5-(2-methylpropoxy)-3-(propan-2-yl)pyrazolo[1,5-a]pyrimidin-7-amine] was tested, and the IC50 was 12 µM. For `CC(C)c1cnn2c(Nc3ccc(S(=O)(=O)N(C)C)cc3)cc(NC3CCCC(N)C3)nc12` (centres undefined) [4-({5-[(3-aminocyclohexyl)amino]-3-(propan-2-yl)pyrazolo[1,5-a]pyrimidin-7-yl}amino)-N,N-dimethylbenzene-1-sulfonamide], the IC50 was > 50 µM. For `N[C@H]1CC[C@H](Nc2cc(Nc3ccc(S(=O)(=O)c4ccccc4)cc3)n3ncc(Br)c3n2)CC1` [5-N-(4-aminocyclohexyl)-7-N-[4-(benzenesulfonyl)phenyl]-3-bromopyrazolo[1,5-a]pyrimidine-5,7-diamine], the IC50 was 5.3 µM. `CCN[C@H]1CC[C@H](Nc2cc(Nc3ccc(S(=O)(=O)N(C)C)cc3)n3ncc(C(C)C)c3n2)CC1` [4-[(5-{[4-(ethylamino)cyclohexyl]amino}-3-(propan-2-yl)pyrazolo[1,5-a]pyrimidin-7-yl)amino]-N,N-dimethylbenzene-1-sulfonamide] was tested, and the IC50 was > 50 µM. `CC(C)c1cnn2c(Nc3ccc(S(=O)(=O)N(C)C)cc3)cc(O[C@H]3CC[C@H](N)CC3)nc12` [4-({5-[(4-aminocyclohexyl)oxy]-3-(propan-2-yl)pyrazolo[1,5-a]pyrimidin-7-yl}amino)-N,N-dimethylbenzene-1-sulfonamide] was tested, and the IC50 was 28 µM. Work on `CC(C)c1cnn2c(Nc3ccc(S(C)(=O)=O)cc3)cc(Cl)nc12` [5-chloro-N-(4-methanesulfonylphenyl)-3-(propan-2-yl)pyrazolo[1,5-a]pyrimidin-7-amine] yielded an IC50 of 11 µM. Compound `CC(C)c1cnn2c(Nc3ccc(S(=O)(=O)N(C)C)cc3)cc(N[C@H]3CC[C@H](N)CC3)nc12` [4-({5-[(4-aminocyclohexyl)amino]-3-(propan-2-yl)pyrazolo[1,5-a]pyrimidin-7-yl}amino)-N,N-dimethylbenzene-1-sulfonamide] has an IC50 of 40 µM. With `CCN(CC)[C@H]1CC[C@H](Nc2cc(Nc3ccc(S(=O)(=O)N(C)C)cc3)n3ncc(C(C)C)c3n2)CC1` [4-[(5-{[4-(diethylamino)cyclohexyl]amino}-3-(propan-2-yl)pyrazolo[1,5-a]pyrimidin-7-yl)amino]-N,N-dimethylbenzene-1-sulfonamide] the IC50 was > 50 µM.
